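Five concentrations, 48 hours, 96-well plates. GI50 is the concentration that inhibits growth by half.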 Activity calls are given as the source filed them. No stated cut-off is given here; in the data, active = GI50 up to about 1.1 µM and inactive = higher.
Key:
Assay in all cases: NCI tumour cell line growth inhibition, 48 h
SF-295 = system: SF-295
OVCAR-3 = system: OVCAR-3
NCI-H226 = system: NCI-H226
LOX IMVI = system: LOX IMVI
UACC-257 = system: UACC-257
U-251 = system: U-251
HOP-92 = system: HOP-92
NCI-H23 = system: NCI-H23
K562 = system: K562
DU-145 = system: DU-145
CCRF-CEM = system: CCRF-CEM
M14 = system: M14
HCT-15 = system: HCT-15
SF-268 = system: SF-268
KM12 = system: KM12
SN12C = system: SN12C
OVCAR-8 = system: OVCAR-8
MDA-N = system: MDA-N
SK-OV-3 = system: SK-OV-3
HCC 2998 = system: HCC 2998

Structure (SMILES) | GI50 (SF-295) | GI50 (OVCAR-3) | GI50 (NCI-H226) | GI50 (LOX IMVI) | GI50 (UACC-257) | GI50 (U-251) | GI50 (HOP-92) | GI50 (NCI-H23) | GI50 (K562) | GI50 (DU-145) | GI50 (CCRF-CEM) | GI50 (M14) | GI50 (HCT-15) [µM] | GI50 (SF-268) | GI50 (KM12) | GI50 (SN12C) | GI50 (OVCAR-8) | GI50 (MDA-N) | GI50 (SK-OV-3) | GI50 (HCC 2998)
COC(=O)[C@H]1NC(=O)CCSSC1(C)C | > 100 µM (inactive) | > 100 µM (inactive) | > 100 µM (inactive) | > 100 µM (inactive) | > 100 µM (inactive) | > 100 µM (inactive) | > 100 µM (inactive) | > 100 µM (inactive) | > 100 µM (inactive) | > 100 µM (inactive) | > 100 µM (inactive) | > 100 µM (inactive) | > 100 | > 100 µM (inactive) | > 100 µM (inactive) | > 100 µM (inactive) | > 100 µM (inactive) |  |  | 
COC[C@@H](/N=C/c1ccc([N+](=O)[O-])cc1)C(C)C | > 100 µM (inactive) |  |  | 52.7 µM (inactive) | > 100 µM (inactive) | > 100 µM (inactive) |  | > 100 µM (inactive) | 34.1 µM (inactive) | > 100 µM (inactive) | 75.9 µM (inactive) | 70.1 µM (inactive) | > 100 | > 100 µM (inactive) | > 100 µM (inactive) | > 100 µM (inactive) | > 100 µM (inactive) | 29.4 µM (inactive) | > 100 µM (inactive) | 
O=C(Cn1c2c(c3ccccc31)CCCC2)N1CCCC1 | 61.8 µM (inactive) | 83.9 µM (inactive) |  | > 100 µM (inactive) | > 100 µM (inactive) |  | > 100 µM (inactive) | > 100 µM (inactive) | > 10 µM (inactive) |  |  | > 100 µM (inactive) | 80.7 |  |  | > 100 µM (inactive) | > 100 µM (inactive) | > 100 µM (inactive) | > 100 µM (inactive) | > 100 µM (inactive)
Nc1ncnc2c1nc(O)n2-c1ccccc1 | > 100 µM (inactive) | > 100 µM (inactive) |  | > 100 µM (inactive) | > 100 µM (inactive) |  | 96.8 µM (inactive) | > 100 µM (inactive) | > 100 µM (inactive) |  |  | > 100 µM (inactive) | > 100 | > 100 µM (inactive) |  | > 100 µM (inactive) | > 100 µM (inactive) | > 100 µM (inactive) | > 100 µM (inactive) | > 100 µM (inactive)
O=C1COc2cc(NC(=S)Nc3ccccc3)ccc2N1 | > 100 µM (inactive) | > 100 µM (inactive) | > 100 µM (inactive) | > 100 µM (inactive) | > 100 µM (inactive) | > 100 µM (inactive) | > 100 µM (inactive) | > 100 µM (inactive) | > 100 µM (inactive) |  | > 100 µM (inactive) | > 100 µM (inactive) | > 100 | > 100 µM (inactive) | > 100 µM (inactive) | > 100 µM (inactive) | > 100 µM (inactive) |  | > 100 µM (inactive) | > 100 µM (inactive)
COc1cc(C(=O)C/C(CCCC(=O)Nc2ccccc2[N+](=O)[O-])=N/NC(=O)c2cc3ccccc3cc2O)ccc1O | 44.4 µM (inactive) | 16.1 µM (inactive) | > 81.7 µM (inactive) | 23.9 µM (inactive) | 27.7 µM (inactive) | 52.1 µM (inactive) | 32.7 µM (inactive) | 41.4 µM (inactive) | 20.2 µM (inactive) |  | 8 µM (inactive) | 20.8 µM (inactive) | 20.2 | 23.8 µM (inactive) | 24.5 µM (inactive) | 44 µM (inactive) | 26.8 µM (inactive) |  | 49.7 µM (inactive) | 28.9 µM (inactive)
N#Cc1c(-c2ccccc2)c(/C=N/c2cccc(C(F)(F)F)c2)c(=O)n2c1[nH]c1ccccc12 | 46.2 µM (inactive) |  | 26.7 µM (inactive) | 32.6 µM (inactive) | 32.5 µM (inactive) | 45 µM (inactive) |  | 34.9 µM (inactive) |  |  | 40.4 µM (inactive) | 32.3 µM (inactive) | 33 | 35.6 µM (inactive) | 19.4 µM (inactive) | 17.4 µM (inactive) | 24.8 µM (inactive) | 28 µM (inactive) | 26.9 µM (inactive) | 30.8 µM (inactive)
COc1cc(Oc2c(O)c(C)c(OC)c(C(C)=O)c2O)c(C(C)=O)c(O)c1C | > 100 µM (inactive) | 43 µM (inactive) | 85.9 µM (inactive) | 57.3 µM (inactive) | 40.6 µM (inactive) | 44.2 µM (inactive) | 44.6 µM (inactive) | 34.4 µM (inactive) |  |  | > 100 µM (inactive) | 64.3 µM (inactive) | 47.6 | 66.4 µM (inactive) | 65.3 µM (inactive) | 34.9 µM (inactive) | 51.6 µM (inactive) |  | > 100 µM (inactive) | 59 µM (inactive)
CCNCCNC(=O)c1ccc(I)cc1 |  | > 100 µM (inactive) | 6.22 µM (inactive) | > 100 µM (inactive) |  | > 100 µM (inactive) | 99.8 µM (inactive) | > 100 µM (inactive) | > 100 µM (inactive) |  | > 100 µM (inactive) | > 100 µM (inactive) | > 100 | > 100 µM (inactive) | > 100 µM (inactive) | > 100 µM (inactive) | > 100 µM (inactive) |  | > 100 µM (inactive) | > 100 µM (inactive)
CC(C)(C)OC(=O)NC1CCC[C@H]1O (stereo partly specified) | > 100 µM (inactive) | > 100 µM (inactive) | > 100 µM (inactive) | > 100 µM (inactive) | > 100 µM (inactive) | > 100 µM (inactive) | > 100 µM (inactive) | > 100 µM (inactive) | > 100 µM (inactive) |  | > 100 µM (inactive) | > 100 µM (inactive) |  | > 100 µM (inactive) | > 100 µM (inactive) | > 100 µM (inactive) | > 100 µM (inactive) |  | > 100 µM (inactive) | > 100 µM (inactive)
O=C(c1ccc(Cl)cc1)c1ccc(OCCSCCCCCCCCCCSCCOc2ccc(C(=O)c3ccc(Cl)cc3)cc2)cc1 | 91.8 µM (inactive) | > 100 µM (inactive) | > 100 µM (inactive) | > 100 µM (inactive) | > 100 µM (inactive) | > 100 µM (inactive) | > 100 µM (inactive) | > 100 µM (inactive) | > 100 µM (inactive) |  | > 100 µM (inactive) |  | > 100 | > 100 µM (inactive) | > 100 µM (inactive) | > 100 µM (inactive) | > 100 µM (inactive) |  | > 100 µM (inactive) | > 100 µM (inactive)
COc1cccc(C23CCCC(C2)N(C)CC3OC(=O)c2ccccc2)c1OC (stereo unspecified) | 19.4 µM (inactive) | 24.8 µM (inactive) |  | 20.1 µM (inactive) | 25.8 µM (inactive) | 28.3 µM (inactive) |  | 10.7 µM (inactive) | 18.8 µM (inactive) | 36 µM (inactive) | 12.5 µM (inactive) | 15.9 µM (inactive) | 22.5 | 32 µM (inactive) | 22.9 µM (inactive) |  | 16.4 µM (inactive) | 16 µM (inactive) | 34 µM (inactive) | 22.9 µM (inactive)
COc1cccc(/C=N\NC(=O)C(C)SC(C)C(=O)N/N=C/c2cccc(OC)c2)c1 (stereo unspecified) | 32.2 µM (inactive) | 20.7 µM (inactive) | 21.2 µM (inactive) | > 10 µM (inactive) | 59.3 µM (inactive) | 18 µM (inactive) | 20.8 µM (inactive) | 23.8 µM (inactive) | > 78.3 µM (inactive) |  | 31.9 µM (inactive) | 72.9 µM (inactive) | > 100 | 33.4 µM (inactive) | 31.5 µM (inactive) | 19.6 µM (inactive) | 28.4 µM (inactive) |  | 18.1 µM (inactive) | 18.5 µM (inactive)
COc1cc(C(=O)C/C(CCC(=O)Nc2ccc(Cl)cc2C)=N/NC(=O)C(N)=O)ccc1O | > 100 µM (inactive) | > 100 µM (inactive) | > 100 µM (inactive) | > 100 µM (inactive) | > 100 µM (inactive) | > 100 µM (inactive) | > 100 µM (inactive) | > 100 µM (inactive) | > 100 µM (inactive) |  | > 100 µM (inactive) | > 100 µM (inactive) | > 100 | > 100 µM (inactive) | > 100 µM (inactive) | > 100 µM (inactive) | > 100 µM (inactive) |  | 65.3 µM (inactive) | > 100 µM (inactive)
Cc1cc(N(CCC#N)CCC#N)ccc1/C=C(\N=[N+]=[N-])C(=O)NC(=O)COc1ccccc1 | > 61.7 µM (inactive) | > 100 µM (inactive) | > 100 µM (inactive) | > 100 µM (inactive) | > 100 µM (inactive) | > 67.8 µM (inactive) | > 100 µM (inactive) | > 100 µM (inactive) | > 100 µM (inactive) |  | > 100 µM (inactive) | > 100 µM (inactive) | > 100 | > 100 µM (inactive) | > 100 µM (inactive) | > 100 µM (inactive) | > 81.1 µM (inactive) |  | > 100 µM (inactive) | > 100 µM (inactive)
Cc1cc2c(c(/C=N/Cc3ccccc3)c1)OC1(C=C2)Oc2ccccc2C(=O)N1C (stereo unspecified) | 29.6 µM (inactive) | 37.4 µM (inactive) | 16 µM (inactive) | 17.4 µM (inactive) | 25.8 µM (inactive) | 29.4 µM (inactive) | 17.5 µM (inactive) | 24.8 µM (inactive) | 14.1 µM (inactive) | 25.4 µM (inactive) | 11.6 µM (inactive) | 23.2 µM (inactive) | 19.6 | 21.8 µM (inactive) | 25.2 µM (inactive) | 27.7 µM (inactive) | 16.5 µM (inactive) |  | 37.5 µM (inactive) | 27.1 µM (inactive)

From ChEMBL document CHEMBL1201862, “PubChem BioAssay data set” (2004)
